Source: ChEMBL document CHEMBL1201862, “PubChem BioAssay data set” (2004)
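Assay format: 96-well plates, 48-hour exposure. At the GI50, growth is halved.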 Activity calls are given as the source filed them. Rule as the data show it: active = GI50 up to about 1.1 µM and inactive = higher.

Key:
Assay in all cases: inhibition of tumour cell growth, NCI panel, 48 h
U-251 = system: U-251
SN12C = system: SN12C
NCI-H23 = system: NCI-H23
HOP-92 = system: HOP-92
MDA-MB-435 = system: MDA-MB-435
UACC-62 = system: UACC-62
HCT-15 = system: HCT-15
SNB-75 = system: SNB-75
OVCAR-8 = system: OVCAR-8
IGROV-1 = system: IGROV-1
PC-3 = system: PC-3
HOP-62 = system: HOP-62
HCC 2998 = system: HCC 2998
SF-295 = system: SF-295
M14 = system: M14
RXF 393 = system: RXF 393
A498 = system: A498
OVCAR-4 = system: OVCAR-4
A549 = system: A549
CCRF-CEM = system: CCRF-CEM

Row | SMILES | GI50 (U-251) | GI50 (SN12C) | GI50 (NCI-H23) | GI50 (HOP-92) | GI50 (MDA-MB-435) | GI50 (UACC-62) | GI50 (HCT-15) [µM] | GI50 (SNB-75) | GI50 (OVCAR-8) | GI50 (IGROV-1) | GI50 (PC-3) | GI50 (HOP-62) | GI50 (HCC 2998) | GI50 (SF-295) | GI50 (M14) | GI50 (RXF 393) | GI50 (A498) | GI50 (OVCAR-4) | GI50 (A549) | GI50 (CCRF-CEM)
1 | CCCC(=O)O[C@H]1C=C2C[C@@]34SS[C@]5(CC6=C[C@H](OC(C)=O)[C@@H]7O[C@@H]7[C@H]6N5C3=O)C(=O)N4[C@@H]2[C@H]2O[C@H]21 | 0.00822 µM (active) | 0.00567 µM (active) | 0.0241 µM (active) | 0.02 µM (active) | 0.0127 µM (active) | 0.0225 µM (active) | 0.0224 | 0.0353 µM (active) | 0.00644 µM (active) | 0.0168 µM (active) | 0.0199 µM (active) | 0.01 µM (active) | 0.00923 µM (active) | 0.329 µM (active) | 0.0129 µM (active) | 0.0205 µM (active) | 0.0279 µM (active) | 0.0197 µM (active) | 0.0311 µM (active) | 0.0116 µM (active)
2 | O=C1NC(NNc2ccccc2)=N/C1=C\c1ccccc1O | 70.5 µM (inactive) | 73.6 µM (inactive) | 39.1 µM (inactive) | 55 µM (inactive) | 71.1 µM (inactive) | 53.3 µM (inactive) | 44.2 | 43.4 µM (inactive) | > 100 µM (inactive) | 89.1 µM (inactive) | 33.6 µM (inactive) | 48.4 µM (inactive) | 80.9 µM (inactive) | 50.2 µM (inactive) | 97.1 µM (inactive) | 40 µM (inactive) | 45.9 µM (inactive) | 50.9 µM (inactive) | 72.6 µM (inactive) | 0.0183 µM (active)
3 | CN(C(=O)C1=CCCCCC1)c1ccccc1I | 44.9 µM (inactive) | 49.1 µM (inactive) | 38.2 µM (inactive) | > 10 µM (inactive) | 40.2 µM (inactive) | 33.2 µM (inactive) | 39.6 | 13.5 µM (inactive) | 38.5 µM (inactive) | 32.8 µM (inactive) | 35 µM (inactive) | 63.4 µM (inactive) | 45.9 µM (inactive) | 44.9 µM (inactive) | 31.6 µM (inactive) | > 100 µM (inactive) | 0.201 µM (active) | 18.2 µM (inactive) | 62.1 µM (inactive) | 41.7 µM (inactive)
4 | O=C1c2cccnc2-c2nccc3ccnc1c23 | 1.05 µM (active) | 1.04 µM (active) | 0.281 µM (active) | 0.687 µM (active) | 0.219 µM (active) | 0.601 µM (active) | 0.366 | 1.08 µM (active) | 0.755 µM (active) | 0.548 µM (active) | 1.36 µM (inactive) | 3.53 µM (inactive) | 1.4 µM (inactive) | 1.29 µM (inactive) | 1.02 µM (active) | 1.13 µM (inactive) | 5 µM (inactive) | 1.91 µM (inactive) | 1.6 µM (inactive) | 0.0309 µM (active)
